Results published in patent US11389434B2, “Methods and pharmaceutical compositions for the treatment of mast cell diseases” (INSERM (INSTITUT NATIONAL DE LA SANTE ET DE LA RECHERCHE …, priority 2017, dated 2022).

Tests used:
leukemic MC = assay: Leukemic mast cell death; assay type: cell-based, human; conditions: data not shown
Protocol: (§1) The human MCL-derived cell line HMC-1 was kindly provided by Dr. Michel Arock, Paris, France. Two sub-clones were used, namely HMC-1.1 expressing KIT V560G, and HMC-1.2 expressing KIT V560G and KIT D816V.
(§2) Human primary mast cells, patient's leukemic mast cells and ROSA KIT-WT cell line were cultured in Iscove's modified Dulbecco's Medium (IMDM)-Glutamax® (Invitrogen) supplemented with the penicillin/streptomycin 100 U/ml (P/S) (Invitrogen), 1% of sodium pyruvate (Invitrogen), 1% of vitamins (Invitrogen), 1% of glutamine (Invitrogen), 2% of non-essential amino acids (Invitrogen), 1% of a commercial solution of insulin-transferrin-sodium selenite (Invitrogen), 0.3% of albumin bovine (BSA) in presence of human SCF at 100 ng/ml (Milteny biotech). “ROSA KIT D816V”, “ROSA KIT Delta 417-419 insY” mast cells and HMC-1 lines which have mutated KIT receptor (CD117) grow in the same media described above but in absence of hSCF.
Kinetic cell proliferation assays were performed using the IncuCyte® Live Cell analysis system with 10 000 cells/well in triplicate and during one week in presence or absence of chemicals compounds, Gant61, Vismodegib and, individually or in combination, to determine their effect on mast cell proliferation. Compounds were added the first day at different doses and the media was not changed over the 7 days. […]

ROSA KIT K417 = assay: Kinetic cell proliferation assay, IncuCyte Live Cell analysis system; assay type: cell-based, human; conditions: ROSA KIT K417, increasing doses (10 to 50 μM), 144 hours
mast cells = assay: Mast cell death by flow cytometry, 7-AAD viability staining; assay type: cell-based, human
Protocol: as §1, §2
(§3) Kinetic cell proliferation assays were performed using the IncuCyte® Live Cell analysis system with 10 000 cells/well in triplicate and during one week in presence or absence of chemicals compounds, Gant61, Vismodegib and, individually or in combination, to determine their effect on mast cell proliferation. Compounds were added the first day at different doses and the media was not changed over the 7 days. At the end of the week, mast cells death was investigated by flow cytometry using 7-AAD viability staining solution.

ROSA WT = assay: Western blot of proteins associated with cell proliferation or apoptosis; assay type: cell-based, human; conditions: increasing doses
Protocol: as §1, §2
(§4) After an overnight starvation of 5 million cells from each kind of cells described above, cells were treated with different doses of chemical agonists (such as purmorfamine) or antagonists (such as Gant61) of HH pathway and for several time-laps. Cells were then collected to extract RNA or proteins to perform gene expression analysis by RT-qPCR or western blot analysis. […]

ROSA D816V = assay: as above; assay type: cell-based, human; conditions: increasing doses
Protocol: as §1, §2, §4

ROSA KIT WT = assay: Kinetic cell proliferation assay, IncuCyte Live Cell analysis system; assay type: cell-based, human; conditions: increasing doses (10 to 50 μM), 144 hours
Protocol: as §1, §2, §3

ROSA KIT D816V = assay: as above; assay type: cell-based, human; conditions: increasing doses (10 to 50 μM), 144 hours
Protocol: as §1, §2, §3

[1] = system: conventional PKC isoforms (α, β, and γ), Syk, FLK1, Akt, PKA, c-Kit, C-Fgr, c-Src, FLT3, PDFRβ, VEGFR1, and VEGFR2; conditions: several serine/threonine and tyrosine kinases; cited from earlier work
GLI1 protein = assay: Western blot of GLI1 after stimulation with SMO agonist; assay type: cell-based; conditions: human MC lines (ROSA KIT WT, KIT D816V), purmorphamine 2 or 5 μM, 12 or 24 hours
Protocol: After an overnight starvation of 5 million cells from each kind of cells described above, cells were treated with different doses of chemical agonists (such as purmorfamine) or antagonists (such as Gant61) of HH pathway and for several time-laps. Cells were then collected to extract RNA or proteins to perform gene expression analysis by RT-qPCR or western blot analysis. Hedgehog genes Gli1-2-3, Smo, Patch receptors, SHH-IHH-DHH ligands and the tumor supressor Bcl2 gene were investigated. Hedgehog proteins (Gli1 and Gli3), proteins involved in apoptosis (Bcl2, caspase3, Bcl-xl) and in PI3K/AKT/mTOR pathway were investigated.

In the case of `CN(C)c1ccccc1CN1CCCN(Cc2ccccc2N(C)C)C1c1ccncc1` [GANT61], the “leukemic MC death” value (leukemic MC) is reported as “induced leukemic MC death”, the “proliferation (percentage of confluence)” value (ROSA KIT K417) is reported as “inhibited” and the mast cells death (mast cells; GANT61 5 μM) is reported as 5%. For the same compound, the mast cells death (mast cells; GANT61 50 μM, data not shown) was “more than 90%”, the “Expression levels of mTOR, p-AKT, AKT, MYC, Caspase3, BCL2, and BCLX-L proteins” value (ROSA WT) was “decreased” and the “Expression levels of mTOR, p-AKT, AKT, MYC, Caspase3, BCL2, and BCLX-L proteins” value (ROSA D816V) was “decreased”. The “proliferation (percentage of confluence)” value (ROSA KIT WT) was “inhibited” and the “proliferation (percentage of confluence)” value (ROSA KIT D816V) was “inhibited”.

For `CO[C@@H]1[C@H](N(C)C(=O)c2ccccc2)C[C@H]2O[C@]1(C)n1c3ccccc3c3c4c(c5c6ccccc6n2c5c31)C(=O)NC4` [PKC 412, N-[(9S,10R,11R,13R)-2,3,10,11,12,13-hexahydro-10-methoxy-9-methyl-1-oxo-9,13-epoxy-1H,9H-diindolo[1,2,3-gh:3′,2′,1′-lm]pyrrolo[3,4-j][1,7]benzodiazonin-11-yl]-N-methyl-benzamide], the IC50 [1] is listed as 80 to 500 nM.

In the case of `c1ccc2c(Oc3nc(Nc4ccc(N5CCOCC5)cc4)c4ncn(C5CCCCC5)c4n3)cccc2c1` [purmorphamine], the GLI1 expression (GLI1 protein) is reported as “clearly increased”.

For `CS(=O)(=O)c1ccc(C(=O)Nc2ccc(Cl)c(-c3ccccn3)c2)c(Cl)c1` [vismodegib], the “proliferation (percentage of confluence)” value (ROSA KIT K417) was “prevented the proliferation”, the “induction of cell death compared with GANT61” value (mast cells; whatever the cell type, data not shown) was “much less important” and the “proliferation (percentage of confluence)” value (ROSA KIT WT) was “prevented the proliferation”. For the same compound, the “proliferation (percentage of confluence)” value (ROSA KIT D816V) was “prevented the proliferation”.
